From ChEMBL document CHEMBL1155912, “Synthesis of 6- or 4-functionalized indoles via a reductive cyclization approach and evaluation as aromatase inhibitors” (Bioorg Med Chem Lett, 2008)

Molecular target: T1, CYP17 (steroid 17-alpha-hydroxylase/17,20 lyase) (Homo sapiens, UniProt P05093)
T1 sequence (P05093 whole entry): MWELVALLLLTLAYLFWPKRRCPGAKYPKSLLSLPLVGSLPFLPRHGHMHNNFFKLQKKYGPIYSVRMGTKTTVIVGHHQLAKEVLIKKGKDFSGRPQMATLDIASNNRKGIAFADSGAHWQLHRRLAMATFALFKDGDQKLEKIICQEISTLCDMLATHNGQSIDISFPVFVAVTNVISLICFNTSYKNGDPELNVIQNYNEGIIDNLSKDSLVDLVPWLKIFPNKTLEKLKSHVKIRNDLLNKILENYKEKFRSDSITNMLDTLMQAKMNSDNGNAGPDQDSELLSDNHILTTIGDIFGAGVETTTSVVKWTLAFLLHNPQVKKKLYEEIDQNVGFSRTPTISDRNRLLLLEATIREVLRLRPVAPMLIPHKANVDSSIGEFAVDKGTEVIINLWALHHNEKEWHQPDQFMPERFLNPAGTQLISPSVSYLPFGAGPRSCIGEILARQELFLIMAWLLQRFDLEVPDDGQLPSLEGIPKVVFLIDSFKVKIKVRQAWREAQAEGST
Experiment: in vitro
Description: Inhibition of human CYP17 expressed in Escherichia coli pJL17/OR coexpressed with rat NADPH-P450 reductase at 2.5 uM

| Structure (SMILES) | inhibition at 2.5 µM [%] |
| --- | --- |
| N#Cc1ccc(C(c2cccc3[nH]ccc23)n2ccnc2)cc1 (stereo not drawn) | 18 |
| N#Cc1ccc(C(c2cccc3[nH]ccc23)n2cncn2)cc1 (stereo not drawn) | < 10 |
| N#Cc1ccc(C(c2ccc3cc[nH]c3c2)n2ccnc2)cc1 (racemic) | 26 |
